Experimental data as given in patent publication US20220241311A1, “METHODS AND MATERIALS FOR TREATING GLYCOSYLATION DISORDERS” (priority 2018, published 2022).

Test system: PGM1-defective patient fibroblasts
Test: Nucleotide sugar analysis (UPLC-PDA), patient fibroblasts
Assay type: cell-based, human
Method: Levels of nucleotides and sugar-nucleotides were determined. Fibroblast cell pellets (5×10^6 cells per sample) were lysed and extracted in 0.37 ml ice-cold 0.5 M perchloric acid with sonication on ice. Samples were neutralized with 86 μl ice-cold neutralization solution (2.5 M KOH in 1.5 M K2HPO4) after 5 minute sonication. To remove precipitated potassium perchlorate neutralized samples were centrifuged at 4° C. and 16,400×g for 10 minutes and filtered with 0.2 μm filters. Nucleotides and sugar-nucleotides were immediately analyzed and separated via ion-pair reverse phased chromatography using an Acquity HSS T3 column (150 mm×2.1 mm, 1.7 μm, Waters) connected to an Acquity H-class UPLC system. The column temperature was set to 40° C. and the column was equilibrated with solvent A (50 mM potassium phosphate buffer, 8 mM tetrabutylammonium hydrogensulfate, pH 6.5) at a flow rate of 0.45 ml min^−1. Autosampler temperature was maintained at 6° C. […] Nucleotides were detected by Acquity PDA detector (Waters, 260 nm) and quantified using ultrapure standards (Sigma). Data acquisition and processing was performed with the Empower3 software suite (Waters).
Nucleotide sugars were measured with serum starvation during 18 hours of culturing and without of serum starvation and applying normal media.

[1] = patient 1, 1 d + 0.75 mM Galactose
[2] = patient 1, 4 d + 0.75 mM Galactose
[3] = patient 2, 1 d + 0.75 mM Galactose
[4] = patient 2, 4 d + 0.75 mM Galactose

## O=C[C@H](O)[C@@H](O)[C@@H](O)[C@H](O)CO [D-gal, D-galactose]
Patient 1, 1 d 2 mM Galactose
  ADP: 580.50 pmol/mio cells
  ATP: 2719.61 pmol/mio cells
  CTP: 342.25 pmol/mio cells
  GDP: 293.65 pmol/mio cells
  GDP-Man: 107.17 pmol/mio cells
  GTP: 542.24 pmol/mio cells
  UDP: 129.40 pmol/mio cells
  UDP-Gal: 453.09 pmol/mio cells
  UDP-Glc: 650.22 pmol/mio cells
  UDP-GlcNAc: 102.26 pmol/mio cells
  UTP: 1449.38 pmol/mio cells
  cAMP: 74.49 pmol/mio cells
[1]
  ADP: 584.35 pmol/mio cells
  AMP: 23.07 pmol/mio cells
  ATP: 2943.38 pmol/mio cells
  CTP: 366.00 pmol/mio cells
  GDP: 246.90 pmol/mio cells
  GDP-Man: 155.03 pmol/mio cells
  GTP: 588.22 pmol/mio cells
  UDP: 134.67 pmol/mio cells
  UDP-Gal: 386.15 pmol/mio cells
  UDP-Glc: 604.90 pmol/mio cells
  UDP-GlcNAc: 121.57 pmol/mio cells
  UTP: 1510.19 pmol/mio cells
  cAMP: 71.81 pmol/mio cells
Patient 1, 4 d 2 mM Galactose
  ADP: 772.84 pmol/mio cells
  AMP: 22.72 pmol/mio cells
  ATP: 3861.23 pmol/mio cells
  CTP: 370.91 pmol/mio cells
  GDP: 387.40 pmol/mio cells
  GDP-Man: 170.10 pmol/mio cells
  GTP: 763.70 pmol/mio cells
  UDP: 215.93 pmol/mio cells
  UDP-Gal: 398.07 pmol/mio cells
  UDP-Glc: 620.64 pmol/mio cells
  UDP-GlcNAc: 12.26 pmol/mio cells
  UTP: 1569.45 pmol/mio cells
  cAMP: 71.92 pmol/mio cells
[2]
  ADP: 789.98 pmol/mio cells
  AMP: 34.87 pmol/mio cells
  ATP: 3796.06 pmol/mio cells
  CTP: 342.60 pmol/mio cells
  GDP: 422.05 pmol/mio cells
  GDP-Man: 217.57 pmol/mio cells
  GTP: 749.54 pmol/mio cells
  UDP: 208.17 pmol/mio cells
  UDP-Gal: 331.94 pmol/mio cells
  UDP-Glc: 475.08 pmol/mio cells
  UDP-GlcNAc: 38.85 pmol/mio cells
  UTP: 1526.34 pmol/mio cells
  cAMP: 73.68 pmol/mio cells
Patient 2, 1 d 2 mM Galactose
  ADP: 610.98 pmol/mio cells
  AMP: 18.34 pmol/mio cells
  ATP: 5088.22 pmol/mio cells
  CTP: 419.20 pmol/mio cells
  GDP: 301.50 pmol/mio cells
  GDP-Man: 194.09 pmol/mio cells
  GTP: 982.69 pmol/mio cells
  UDP: 166.53 pmol/mio cells
  UDP-Gal: 527.44 pmol/mio cells
  UDP-Glc: 871.97 pmol/mio cells
  UDP-GlcNAc: 5.21 pmol/mio cells
  UTP: 2093.30 pmol/mio cells
  cAMP: 81.52 pmol/mio cells
[3]
  ADP: 754.10 pmol/mio cells
  AMP: 16.43 pmol/mio cells
  ATP: 5766.25 pmol/mio cells
  CTP: 448.80 pmol/mio cells
  GDP: 356.25 pmol/mio cells
  GDP-Man: 236.64 pmol/mio cells
  GTP: 1110.15 pmol/mio cells
  UDP: 219.47 pmol/mio cells
  UDP-Gal: 478.66 pmol/mio cells
  UDP-Glc: 821.98 pmol/mio cells
  UDP-GlcNAc: 36.15 pmol/mio cells
  UTP: 2422.95 pmol/mio cells
  cAMP: 77.51 pmol/mio cells
Patient 2, 4 d 2 mM Galactose
  ADP: 849.99 pmol/mio cells
  AMP: 20.40 pmol/mio cells
  ATP: 6520.85 pmol/mio cells
  CTP: 430.21 pmol/mio cells
  GDP: 356.50 pmol/mio cells
  GDP-Man: 340.74 pmol/mio cells
  GTP: 1241.95 pmol/mio cells
  UDP: 249.58 pmol/mio cells
  UDP-Gal: 455.92 pmol/mio cells
  UDP-Glc: 665.41 pmol/mio cells
  UDP-GlcNAc: 2.63 pmol/mio cells
  UTP: 2810.26 pmol/mio cells
  cAMP: 70.40 pmol/mio cells
[4]
  ADP: 834.56 pmol/mio cells
  AMP: 21.45 pmol/mio cells
  ATP: 6841.61 pmol/mio cells
  CTP: 425.54 pmol/mio cells
  GDP: 394.32 pmol/mio cells
  GDP-Man: 203.23 pmol/mio cells
  GTP: 1263.21 pmol/mio cells
  UDP: 262.74 pmol/mio cells
  UDP-Gal: 390.10 pmol/mio cells
  UDP-Glc: 611.51 pmol/mio cells
  UDP-GlcNAc: 4.53 pmol/mio cells
  UTP: 2976.41 pmol/mio cells
  cAMP: 72.52 pmol/mio cells
Patient cell lines on D-gal (1.63 without)
  Nucleotide sugar ratio UDP-Glc/UDP-Gal, mean: 1.56
